Twelve compounds from patent US20080207645A1, “Pyridothienopyrimidine Derivatives” (priority 2004, published 2008) can be followed below.

The test concerns PDE4. The test can be described thus: PDE4 Assay Procedure ([3H]-cAMP SPA). The class given is biochemical. The conditions noted are these: 15 nM [3H]-cAMP, 1 hour at room temperature, SPA beads. On the procedure: Compounds to be tested were resuspended in DMSO at a stock concentration of 1 mM. […] These dilutions were done in 96-well plates. In some cases, plates containing diluted compounds were frozen before being assayed. In these cases, the plates were thawed at room temperature and stirred for 15 minutes.
Ten microliters of the diluted compounds were poured into a “low binding” assay plate. […] The reaction was initiated by adding ten microliters of a solution containing PDE4. The plate was then incubated under stirring for 1 hour at room temperature. After incubation the reaction was stopped with 50 microlitres of SPA beads, and the reaction was allowed to incubate for another 20 minutes at room temperature before measuring radioactivity using standard instrumentation.
The reaction mixture was prepared by adding 90 ml of H2O to 10 ml of 10× assay buffer (500 mM Tris pH 7.5, 83 mM MgCl2, 17 mM EGTA), and 40 microlitres 1 μCi/μL [3H]-cAMP. SPA beads solution was prepared by adding 500 mg to […] H2O for a final concentration of 20 mg/ml beads and 18 mM zinc sulphate.
As a reminder, the IC50 is the concentration that inhibits the measured activity by half. Lower therefore signals inhibition by little substance. `COCCN(C)c1nc2sc3c(NCc4cccnc4)ncnc3c2c2c1COC(C)(C)C2` [Example 59, N-(2-Methoxyethyl)-N,2,2-trimethyl-N-(pyridin-3-ylmethyl)-1,4-dihydro-2H-pyrano[4″,3″:4′,5′]pyrido[3′,2′:4,5]thieno[3,2-d]pyrimidine-5,8-diamine.] displayed a concentration for half-maximal inhibition (IC50) of 61 nM.

As for `CC1(C)Cc2c(c(N3CCOCC3)nc3sc4c(NCc5cccnc5)ncnc4c23)CO1` [Example 36, 2,2-dimethyl-5-morpholin-4-yl-N-(pyridin-3-ylmethyl)-1,4-dihydro-2H-pyrano[4″,3″:4′,5′]pyrido[3′,2′:4,5]thieno[3,2-d]pyrimidin-8-amine], the IC50 worked out at 4.6 nM. Take `CC1(C)Cc2c(c(N3CCOCC3)nc3sc4c(NCCN5CCOCC5)ncnc4c23)CO1` [Example 20, 2,2-Dimethyl-5-morpholin-4-yl-N-(2-morpholin-4-ylethyl)-1,4-dihydro-2H-pyrano[4″,3″:4′,5′]pyrido[3′,2′:4,5]thieno[3,2-d]pyrimidin-8-amine]: the half-maximal inhibitory concentration (IC50) is 26 nM. `CC(C)Cc1nc2sc3c(NCc4cccnc4)ncnc3c2c2c1COC(C)(C)C2` [Example 74, 5-Isobutyl-2,2-dimethyl-N-(pyridin-3-ylmethyl)-1,4-dihydro-2H-pyrano[4″,3″:4′,5′]pyrido[3′,2′:4,5]thieno[3,2-d]pyrimidin-8-amine] gave an IC50 of 22 nM.

Compound `CCCc1nc2sc3c(NCc4cccnc4)ncnc3c2c2c1COC(C)(C)C2` [Example 72, 2,2-Dimethyl-5-propyl-N-(pyridin-3-ylmethyl)-1,4-dihydro-2H-pyrano[4″,3″:4′,5′]pyrido[3′,2′:4,5]thieno[3,2-d]pyrimidin-8-amine] displayed an IC50 of 24 nM. With `CC1(C)Cc2c(c(N3CCOCC3)nc3sc4c(NCc5ccccn5)ncnc4c23)CO1` [Example 37, 2,2-dimethyl-5-morpholin-4-yl-N-(pyridin-2-ylmethyl)-1,4-dihydro-2H-pyrano[4″,3″:4′,5′]pyrido[3′,2′:4,5]thieno[3,2-d]pyrimidin-8-amine] the figure was 21 nM; with `CC1(C)Cc2c(c(N3CCCC3)nc3sc4c(NCc5ccncc5)ncnc4c23)CO1` [Example 71, 2,2-Dimethyl-N-(pyridin-4-ylmethyl)-5-pyrrolidin-1-yl-1,4-dihydro-2H-pyrano[4″,3″:4′,5′]pyrido[3′,2′:4,5]thieno[3,2-d]pyrimidin-8-amine], 32 nM. For `CC(C)c1nc2sc3c(NCc4ccccn4)ncnc3c2c2c1COC(C)(C)C2` [Example 46, 2,2-Dimethyl-5-isopropyl-N-(pyridin-2-ylmethyl)-1,4-dihydro-2H-pyrano[4″,3″:4′,5′]pyrido[3′,2′:4,5]thieno[3,2-d]pyrimidin-8-amine], half-maximal inhibition (IC50) required 14 nM. For `CC1(C)Cc2c(c(N3CCCC3)nc3sc4c(NCCN5CCOCC5)ncnc4c23)CO1` [Example 27, 2,2-Dimethyl-5-pyrrolidin-1-yl-N-(2-morpholin-4-ylethyl)-1,4-dihydro-2H-pyrano[4″,3″:4′,5′]pyrido[3′,2′:4,5]thieno[3,2-d]pyrimidin-8-amine], the 50% inhibitory concentration (IC50) came out at 23 nM.

With `CCC1(C)Cc2c(c(N3CCOCC3)nc3sc4c(NCc5cccnc5)ncnc4c23)CO1` (stereo not drawn) [Example 80, 2-Ethyl-2-methyl-5-morpholin-4-yl-N-(pyridin-3-ylmethyl)-1,4-dihydro-2H-pyrano[4″,3″:4′,5′]pyrido[3′,2′:4,5]thieno[3,2-d]pyrimidin-8-amine], the IC50 amounted to 13 nM.

Compound `CC1(C)Cc2c(c(N3CCOCC3)nc3sc4c(NCc5ccncc5)ncnc4c23)CO1` [Example 55, 2,2-Dimethyl-5-morpholin-4-yl-N-(pyridin-4-ylmethyl)-1,4-dihydro-2H-pyrano[4″,3″:4′,5′]pyrido[3′,2′:4,5]thieno[3,2-d]pyrimidin-8-amine] came in with a half-inhibitory concentration (IC50) of 19 nM. For `CCCc1nc2sc3c(NCCN4CCOCC4)ncnc3c2c2c1COC(C)(C)C2` [Example 38, 2,2-dimethyl-N-(2-morpholin-4-ylethyl)-5-propyl-1,4-dihydro-2H-pyrano[4″,3″:4′,5′]pyrido[3′,2′:4,5]thieno[3,2-d]pyrimidin-8-amine], inhibition was half-maximal at 19 nM (IC50).
